The values that follow come from patent US7476684B2, “Compounds for the treatment of neurological, psychiatric or pain disorders” (AstraZeneca AB, priority 2005, dated 2009).

SMILES strings stand for the structures.

Data set [1] in a line: Moisture sorption / deliquescence of the salt versus relative humidity. The data set is classed as physicochemical.
Data set [2] can be described thus: Intrinsic dissolution rate, low-volume rotating disc method. The data set is classed as physicochemical. The conditions noted are these: salt made at 1 g scale from ethanol; disc 0.07 cm^2, 500 rpm, 50 mL USP Phosphate buffer pH 6.8 at 37° C. As to the method: The salt manufactured at 1 g scale from ethanol was further investigated for its intrinsic dissolution rate and compared to the free base of 4-(5-{(1R)-1-[5-(3-chlorophenyl)isoxazol-3-yl]ethoxy}-4-methyl-4H-1,2,4-triazol-3-yl)pyridine. […] Dissolution rates of the base and salt were measured with a low-volume rotating disc method. Discs were compressed from pure compound and centrically mounted in a disc holder with an exposed area of 0.07 cm^2. The disc holder rotated at 500 rpm immersed in 50 mL USP Phosphate buffer pH 6.8 at 37° C. The compound was analyzed UV-Online by a Spectrophotometer with a flow cell and a peristaltic pump with continuous circulation.

Take `C[C@@H](Oc1nnc(-c2ccncc2)n1C)c1cc(-c2cccc(Cl)c2)on1.Cl` [Example 17, 4-(5-{(1R)-1-[5-(3chlorophenyl)isoxazol-3-yl]ethoxy}-4-methyl-4H-1,2,4-triazol-3-yl)pyridine hydrochloride]: the “increased moisture sorption at relative humidity” value in data set [1] (crystalline hydrochloride salt) is on record as 90-95 % RH. In data set [2], the “intrinsic dissolution rate as compared to the free base” value was determined as 1000 times.
As to `C[C@@H](Oc1nnc(-c2ccncc2)n1C)c1cc(-c2cccc(Cl)c2)on1.O=S(=O)(O)O` [Example 18, 4-(5-{(1R)-1-[5-(3-chlorophenyl)isoxazol-3-yl]ethoxy}-4-methyl-4H-1,2,4-triazol-3-yl)pyridine sulphate], the “deliquesce at relative humidity” value was 60-70 % relative humidity in data set [1] (first batch, oiled salt recrystallised in ethanol) and 70-80 % RH in data set [1] (second batch, salt manufactured from ethanol at 68° C.).
